This assay addresses T1, K103NNY181C mutant reverse transcriptase (Human immunodeficiency virus type 1 group M subtype B, UniProt P04585, K690N/Y768C).
T1 construct: mutations that occur in the reverse transcriptase segment of the pol gene
Briefly: Reverse transcriptase enzymatic assay (PicoGreen), K103N/Y181C mutant RT. The class given is biochemical, HIV-1. Particulars: enzymatic assay of Example 24. The protocol:
The enzymatic assay employed is described as follows: The reverse transcriptase (RT) enzyme assay has been adapted to a 96-well microtiter plate format and uses PicoGreen™ as a fluorescent intercalator. More explicitly, the HIV-1 RT enzyme was thawed and appropriately diluted into Tris/HCl 50 mM pH 7.8 containing NaCl 60 mM, MgCl2.6H2O 2 mM, DTT 6 mM, GSH 2 mM and 0.02% w/v Chaps to give ≈10 nM enzyme. To 10 μL of this enzyme solution was added 10 μL of inhibitor solution (40 μM to 2.032 nM inhibitor in the same assay buffer as above containing 4% v/v DMSO). The plate was pre-incubated for 15 minutes at room temperature before proceeding to the next step. In this pre-incubation step, the highest and lowest inhibitor concentrations were 20 μM and 1.016 nM respectively and the concentration of DMSO was 2% v/v. Then the enzymatic reaction was initiated by addition of 20 μL of substrate solution. The final reaction mixture contained Tris/HCl 50 mM pH 7.8, NaCl 60 mM, MgCl2.6H2O 2 mM, DTT 6 mM, GSH 2 mM, CHAPS 0.02% w/v, DMSO 1% v/v, poly rC 45 nM, dG15 4.5 nM, dGTP 3.6 μM, and 2.5 nM enzyme. In this incubation step, the highest and lowest inhibitor concentrations were 10 μM and 0.508 nM respectively. After addition of the substrate cocktail, the plate was covered with a plastic seal and incubated for 50 minutes at 37° C. in a dry incubator. The reaction was then quenched by addition of 5 μL of EDTA 0.5 M. The plate was shaken for 30 seconds at medium speed and incubated for 5 minutes at room temperature. Then 160 μL of PicoGreen™ 1:400 dilution from commercial stock (diluted in Tris 20 mM pH 7.5 with EDTA 1 mM) was added and the plate was shaken for 30 seconds and incubated for 10 minutes at room temperature. The plate was then analyzed using a POLARstar Galaxy fluorometer (BMG Labtechnologies) with λex and λem of 485 nm and 520 nm respectively. Each well was read for 1.25 second. Each row contained at its extremities a blank and a control well.

The mark [1] stands for this setting: IC50 mut, K103N/Y181C mutant reverse transcriptase.
[2] abbreviates: IC50 mut, mutant reverse transcriptase.
[3] abbreviates: IC50 mut (nM), mutant (K103N/Y181C) reverse transcriptase.

For orientation: IC50 means the concentration at which inhibition is half-maximal. Low readings indicate higher potency, high ones lower potency.

Under setting [1], `CC(C)(C#Cc1ccc(NC(=O)CSc2nnnn2-c2ccc(C(C)(C)C)cc2Cl)c(Cl)c1)OCC(=O)NC1(C(=O)O)CC1` [Compound 4036] registered an IC50 of 36 nM. For the compound `O=C(CSc1nnnn1-c1ccc(C2CC2)cc1Cl)Nc1ccc(-c2ccc(OCCN3CCCC3)cc2)cc1Cl` [Compound 2046], the IC50 under setting [2] stood at 6.95 nM. `CC(C)(C)c1ccc(-n2nnnc2SCC(=O)Nc2ccc(NS(=O)(=O)Cc3ccccc3)cc2Cl)c(Cl)c1` [Compound 7004] came in with an IC50 under setting [3] of 272 nM. This lies in the sub-micromolar range. As for `CC(C)(C)c1ccc(-n2nnnc2SCC(=O)Nc2ccc(-c3ccc(OCCN4CC[C@H](O)C4)cc3)cc2Cl)c(Cl)c1` [Compound 2042], the IC50 under setting [2] was determined as 15 nM. In other words, the double-digit nanomolar range. Regarding `CC(C)(C)c1ccc(-n2nnnc2SCC(=O)Nc2ccc(OCC(=O)NCc3ccc(C(=O)O)cc3)cc2Cl)c(Cl)c1` [Compound 5027], the IC50 under setting [2] is 51 nM. Under setting [1], `CC(C)(N)C#Cc1ccc(NC(=O)CSc2nnnn2-c2cc(C(F)(F)F)ccc2Cl)c(Cl)c1F` [Compound 4163] showed an IC50 of 83 nM. On the same count and under the same terms, the figure for `CC(C)(C#Cc1ccc(NC(=O)CSc2nnnn2-c2cc(C(C)(C)C)ccc2Cl)c(Cl)c1)NC(=O)CN1CCNCC1` [Compound 4202] is 106 nM.

`C#CCCC(=O)Nc1ccc(NC(=O)CSc2nnnn2-c2ccc(C(C)(C)C)cc2Cl)c(Cl)c1` [Compound 7020] came in with an IC50 under setting [3] of 69 nM. In other words, the double-digit nanomolar range. Under setting [1], `CCC(C#Cc1ccc(NC(=O)CSc2nnnn2-c2ccc(C3CC3)cc2Cl)c(Cl)c1)(CC)NC(=O)OC(C)(C)C` [Compound 4066] yielded a half-maximal inhibitory concentration (IC50) of 732 nM. Under setting [3], `CC(C)CCC(=O)Nc1ccc(NC(=O)CSc2nnnn2-c2ccc(C(C)(C)C)cc2Cl)c(Cl)c1` [Compound 7024] registered an IC50 of 414 nM. `CC(C)(C#Cc1ccc(NC(=O)CSc2nnnn2-c2cc(C(F)(F)F)cc(C3CC3)c2Cl)c(Cl)c1)OCCN1CCC(F)(F)C1` [Compound 4242] yielded an IC50 under setting [1] of 854 nM.

As for `CNC(=O)NC(C)(C)C#Cc1ccc(NC(=O)CSc2nnnn2-c2ccc(C3CC3)cc2Cl)c(Cl)c1` [Compound 4071], half-maximal inhibition under setting [1] (IC50) required 8.75 nM. Compound `CN(C)CC(=O)NC(C)(C)C#Cc1ccc(NC(=O)CSc2nnnn2-c2cc(C(F)(F)F)ccc2Cl)c(Cl)c1` [Compound 4138] displayed an IC50 under setting [1] of 43 nM. Under setting [1], `CC(C)(C#Cc1ccc(NC(=O)CSc2nnnn2-c2cc(C(F)(F)F)ccc2Cl)c(Cl)c1F)C(=O)NCCN1CCCC1` [Compound 4160] had an IC50 of 114 nM. This IC50 lies about 2.7-fold higher than the previous one. Under setting [2], `O=C(CSc1nnnn1-c1cc(C(F)(F)F)ccc1Cl)Nc1ccc(-c2ccc(OCCN3CCCC3)cc2)c(F)c1Cl` [Compound 2058] gave an IC50 of 25 nM.

For the compound `Cc1ccc(-n2nnnc2SCC(=O)Nc2ccc(-c3ccc(OCC(=O)O)cc3)cc2Cl)c(Cl)c1` [Compound 2007], the IC50 under setting [2] was found to be 22 nM. In the case of `Cc1nnc(SCC(=O)Nc2ccc(-c3ccc(OCC(=O)O)cc3)cc2Cl)n1-c1ccc(C(C)(C)C)cc1Cl` [Compound 1001], the IC50 under setting [2] worked out at 25.5 nM. Take `CC(C)(C#Cc1ccc(NC(=O)CSc2nnc(C(F)(F)F)n2-c2ccc(C3CC3)cc2Cl)c(Cl)c1)C(=O)O` [Compound 1017]: it took 72 nM to reach half-maximal inhibition under setting [2] (IC50). Under setting [1], `O=C(CSc1nnnn1-c1ccc(C2CC2)cc1Cl)Nc1ccc(C#CCCN2CCCC2)cc1Cl` [Compound 4132] showed an IC50 of 49.5 nM. This lies in the double-digit nanomolar range.

For `CC(C)(C)c1ccc(-n2nnnc2SCC(=O)Nc2ccc(OCC(=O)NC[C@H]3CC[C@H](C(=O)O)CC3)cc2Cl)c(Cl)c1` [Compound 5031], under setting [2], 118 nM corresponded to half-maximal inhibition (IC50). Under setting [1], `CC(C)(C#Cc1ccc(NC(=O)CSc2nnnn2-c2ccc(C3(C)CC3)cc2Cl)c(Cl)c1)C(=O)O` [Compound 4173] yielded an IC50 of 51 nM. This lies in the double-digit nanomolar range. Regarding `CC(C)(C)c1ccc(-n2nnnc2SCC(=O)Nc2ccc(NC(=O)C3CCCCC3)cc2Cl)c(Cl)c1` [Compound 7022], under setting [3], the IC50 amounted to 629 nM. For the compound `COC(C(=O)Nc1ccc(NC(=O)CSc2nnnn2-c2ccc(C(C)(C)C)cc2Cl)c(Cl)c1)c1ccccc1` (stereo not drawn) [Compound 7039], 89.5 nM corresponded to half-maximal inhibition under setting [3] (IC50). This IC50 lies about 7-fold lower than the previous one. Under setting [2], `Cc1ccc(-n2nnnc2SCC(=O)Nc2ccc(-c3cocn3)cc2Cl)c(Cl)c1` [Compound 3016] came in with an IC50 of 359 nM. Turning to `CC(CC(=O)O)NC(=O)c1ccc(NC(=O)CSc2nnnn2-c2ccc(C(C)(C)C)cc2Cl)c(Cl)c1` (stereo not drawn) [Compound 6015], the IC50 under setting [2] came to 39 nM. Take `COc1ccccc1CC(=O)Nc1ccc(NC(=O)CSc2nnnn2-c2ccc(C(C)(C)C)cc2Cl)c(Cl)c1` [Compound 7018]: the IC50 under setting [3] turned out to be 100 nM. This counts as sub-micromolar.

On to `CC(C)(C)c1ccc(-n2nnnc2SCC(=O)Nc2ccc(-c3ccc(C(=O)O)s3)cc2Cl)c(Cl)c1` [Compound 3030], for which, under setting [2], the IC50 turned out to be 28 nM.

In the case of `CC(C)(C)c1ccc(-n2nnnc2SCC(=O)Nc2ccc(NC(=O)Cc3ccccc3O)cc2Cl)c(Cl)c1` [Compound 7042], the 50% inhibitory concentration (IC50) under setting [3] came out at 27 nM.

Consider `CC(C)(C#Cc1ccc(NC(=O)CSc2nnnn2-c2ccc(C3CC3)cc2Cl)c(Cl)c1)NC(=O)C1(C(=O)O)CC1` [Compound 4233], for which the IC50 under setting [1] stood at 9.35 nM. In other words, the single-digit nanomolar range. Take `CN(C)c1ccc(CC(=O)Nc2ccc(NC(=O)CSc3nnnn3-c3ccc(C(C)(C)C)cc3Cl)c(Cl)c2)cc1` [Compound 7037]: the IC50 under setting [3] was found to be 236 nM. This counts as sub-micromolar. On to `CN(C)CC(=O)NC(C)(C)C#Cc1ccc(NC(=O)CSc2nnnn2-c2cc(C(F)(F)F)ccc2Cl)c(Cl)c1F` [Compound 4171], for which half-maximal inhibition under setting [1] (IC50) required 31.5 nM. `CC(C)(C#Cc1ccc(NC(=O)CSc2nnnn2-c2cc(C(F)(F)F)c(C3CC3)cc2Cl)c(Cl)c1)C(=O)O` [Compound 4211]: the midpoint of inhibition under setting [1], the IC50, lay at 482 nM. Compared with the last compound, the IC50 is about 15-fold higher. Under setting [1], `CC(C)(C#Cc1ccc(NC(=O)CSc2nnnn2-c2ccc(C(C)(C)C)cc2Cl)c(Cl)c1)CO` [Compound 4016] gave an IC50 of 35 nM. Consider `Cc1ccc(-n2nnnc2SCC(=O)Nc2ccc(-c3ccc(CC(N)=O)cc3)cc2Cl)c(Cl)c1` [Compound 2012], for which the half-maximal inhibitory concentration (IC50) under setting [2] came out at 15 nM.

Turning to `CC(C)c1ccc(-n2nnnc2SCC(=O)Nc2ccc(C#CC(C)(C)C(=O)O)cc2Cl)c(Br)c1` [Compound 4099], under setting [1], the IC50 is 42.5 nM. Under setting [2], `Cc1cc(C(F)(F)F)cc(-n2nnnc2SCC(=O)Nc2ccc(-c3ccc(CC(=O)O)cc3)cc2Cl)c1Cl` [Compound 2044] returned an IC50 of 29 nM. For the compound `CC(C)(O)C#Cc1ccc(NC(=O)CSc2nnnn2-c2ccc(C3CC3)cc2Cl)c(Br)c1` [Compound 4078], the IC50 under setting [1] came out at 13.5 nM. Turning to `CNC(=O)NS(=O)(=O)c1ccc(NC(=O)CSc2nnnn2-c2ccc(C3CC3)cc2Cl)c(Cl)c1` [Compound 3039], half-maximal inhibition under setting [2] (IC50) required 268 nM. Under setting [1], `CC(C)(C#Cc1ccc(NC(=O)CSc2nnnn2-c2ccc(C3CC3)cc2Cl)c(Cl)c1)OCCNC1CCC1` [Compound 4118] yielded an IC50 of 89.5 nM. `CC(C)(C)c1ccc(-n2nnnc2SCC(=O)Nc2ccc(OCC(=O)Nc3ccc(N4CCOCC4)cc3)cc2Cl)c(Cl)c1` [Compound 5005] returned an IC50 under setting [2] of 216 nM. Under setting [2], `CC(C)c1ccc(-n2nnnc2SCC(=O)Nc2ccc(-c3ccc(C(C)(C)C(=O)O)cc3)cc2Cl)c(Cl)c1` [Compound 2055] registered an IC50 of 56 nM. As to `CN(O)C(=O)COC(C)(C)C#Cc1ccc(NC(=O)CSc2nnnn2-c2ccc(C(C)(C)C)cc2Cl)c(Cl)c1` [Compound 4050], under setting [1], half-maximal inhibition (IC50) required 66 nM. The same measure, in the same setting: the figure for `CC(C)(O)C#Cc1ccc(NC(=O)CSc2nnnn2-c2c(F)ccc(C(F)(F)F)c2Cl)c(Cl)c1` [Compound 4022] is 185 nM. For `CC(C)NS(=O)(=O)c1ccc(NC(=O)CSc2nnnn2-c2ccc(C(C)(C)C)cc2Cl)c(Cl)c1` [Compound 3023], the IC50 under setting [2] was 284 nM. As for `CCS(=O)(=O)NC(=O)C(C)(C)C#Cc1ccc(NC(=O)CSc2nnnn2-c2ccc(C3CC3)cc2Cl)c(Cl)c1` [Compound 4197], the IC50 under setting [1] was found to be 57.5 nM. Take `CC(C)(C)c1ccc(-n2nnnc2SCC(=O)Nc2ccc(NC(=O)Cc3cccc4occc34)cc2Cl)c(Cl)c1` [Compound 7034]: under setting [3], the IC50 worked out at 201 nM. This lies in the sub-micromolar range. Turning to `CC(C)(C#Cc1ccc(NC(=O)CSc2nnnn2-c2ccc(C(C)(C)C)cc2Cl)c(Cl)c1)OCC(=O)Nc1ccncc1` [Compound 4041], the IC50 under setting [1] worked out at 35 nM. The same measure, in the same setting: the figure for `CC(C)(C#Cc1ccc(NC(=O)CSc2nnnn2-c2cc(C3CC3)ccc2Cl)c(Cl)c1)NC(=O)CN1CCNCC1` [Compound 4195] is 22.5 nM; for `CC(C)(C)c1ccc(-n2nnnc2SCC(=O)Nc2ccc(C#CCCC(=O)O)cc2Cl)c(Cl)c1` [Compound 4102] it is 24.5 nM. `CC(C)(C)c1ccc(-n2nnnc2SCC(=O)Nc2ccc(C(=O)NC3CC3)cc2Cl)c(Cl)c1` [Compound 6002]: under setting [2], it took 31 nM to reach half-maximal inhibition (IC50). Compound `Cc1cc(F)c(-n2nnnc2SCC(=O)Nc2ccc(-c3ccc(C(C)(C)C(=O)O)cc3)cc2Cl)c(Cl)c1` [Compound 2026] displayed an IC50 under setting [2] of 48 nM.

Source of the values: patent publication US7517998B2, “Non nucleoside reverse transcriptase inhibitors” (priority 2004, dated 2009).
